Experimental data as given in US12447167B2, “GM-CSF-producing t-cell control agent and Th1/Th2 immune balance regulator” (National Center of Neurology and Psychiatry, priority 2014, dated 2025).

Legend:
[1] = tested on: GM-CSF-producing CD4-positive memory T-cells; assay: GM-CSF-producing CD4-positive memory T-cells in PBMCs of normal subjects after single oral dose (FACS); assay type: in vivo, human
Experimental: A single dose of compound 31, which is a synthetic glycolipid of the present invention, described in the first aspect, i.e., (2S,3S,4R)-1-O-(α-D-galactosyl)-2-(N-tetracosanoylamino)-1,3,4-nonanetriol represented by the following formula (III), was orally administered to each of subjects of 4 cohorts (A, B, C, and D cohorts) each consisting of 3 normal subjects shown in Table 1 above after obtainment of informed consent.
The dose was set to 0.3 mg per person for A cohort, 1 mg per person for B cohort, 3 mg per person for C cohort, and 10 mg per person for D cohort.
Subsequently, T-cell subfractions were prepared from the peripheral blood of each subject by using the density gradient centrifugation method. First, a total of 20 mL of blood was collected from the vein of each subject 24 hours (1st day), 48 hours (2nd day), 72 hours (3rd day), and 168 hours (7th day) after the administration of compound 31 by using two 10-mL heparin sodium-containing vacuum blood collection tubes. For a control, 20 mL of blood was similarly collected from the vein of each subject one day before the administration of compound 31.
Next, 4 mL of Ficoll-Paque Plus (GE Healthcare Biosciences Corp.) was placed in each of four 15-mL conical tubes, and 10 mL of blood diluted twice with phosphate buffered saline (PBS) was gently layered thereon. Then, density gradient centrifugation was performed by centrifugation at 1800 rpm at ordinary temperature for 30 minutes. After the centrifugation, a supernatant containing plasma and platelet was discarded, and lymphocytes present at the boundary layer between the supernatant layer and the Ficoll-Paque Plus layer were recovered into a fresh 50-mL conical tube. The 50-mL conical tube was filled by adding PBS thereto, followed by centrifugation at 1800 rpm at ordinary temperature for 5 minutes. […] After a supernatant was removed by suction again, a single cell suspension was prepared by adding 1 mL of AIM-V medium (Life Technologies Corp.), and then, the number of cells was measured with a counting chamber. […]

[2] = Disposition after single oral dose, mouse; assay type: in vivo; set-up: concentration in blood: unit not given here; conditions: male mouse, 5 mg/kg single oral, 14C-labeled, fasting
Experimental: After a single dose of compound 31 labeled with ^14C was orally administered at a predetermined dose to each of a male mouse, a male rat, and a male cynomolgus monkey under fasting conditions, the concentration in blood was measured after a lapse of a given time, and parameters such as maximum plasma concentration Cmax, time Tmax to reach the maximum plasma concentration, half-life t1/2, area under curve AUC0-∞, mean retention time MRT0-∞, and bioavailability BA were calculated. The concentration in blood in humans (normal subjects) was measured and each of the parameters was calculated, in the similar manner as above except that ^14C-unlabeled compound 31 was used.
In the tables, “N.D.” means not detected.

AUC(0-inf) ([2]; blood): 2920 ng·h/mL
AUC(0-t) ([2]; blood): 2900 ng·h/mL
half-life ([2]; blood): 11 h
MRT inf ([2]; blood, read-out: MRT0-∞): 15.4 h
BA [2]: 1.01%
Rate of absorption [2]: 1.36%
concentration in blood ([2]; 4 h): 46.5
concentration in blood ([2]; 8 h): 209
concentration in blood ([2]; 12 h): 142
concentration in blood ([2]; 24 h): 33
concentration in blood ([2]; 48 h): 5.21
concentration in blood ([2]; 72 h): 1.62
Cmax ([2]; plasma): 209 ng/mL
Tmax ([2]; plasma): 8 h
SMILES: CCCCCCCCCCCCCCCCCCCCCCCC(=O)NC(COC1OC(CO)C(O)C(O)C1O)[C@H](O)C(O)CCCCC (stereo in doubt) [compound 31, (2S,3S,4R)-1-O-(α-D-galactosyl)-2-(N-tetracosanoylamino)-1,3,4-nonanetriol]
suppressive effects on CD4-positive memory T-cells ([1]; A cohort, 0.3 mg single oral (low dose)): high suppressive effects
growth of GM-CSF-producing CD4-positive memory T-cells ([1]; C and D cohorts (3 mg, 10 mg), 1 day after administration, transient): promoted
proportion of GM-CSF-producing CD4-positive memory T-cells in PBMCs ([1]; single oral dose, all cohorts (0.3, 1, 3, 10 mg), after administration vs pre-administration value (day-1)): decreased
